Data on nine molecules can be found in ChEMBL document CHEMBL1127271, “Synthesis of 1,2,4-triazine-(2H,4H)-3,5,-dione anticoccidial agents via palladium-catalyzed cross-coupling reactions” (Bioorg Med Chem Lett, 1994).

The source made the active and inactive calls. The calls are words filed in the database; no cut-off is given here.

This assay deals with Eimeria tenella. Briefly: In vivo anti-coccidial activity determined at a dose of <16 p.p.m. (battery efficacy against Eimeria tenella); IA means Inactive. It counts as functional, organism-based.

In the case of `O=C(O)c1nn(-c2ccc(I)c(C(F)(F)F)c2)c(=O)[nH]c1=O`, the outcome was inactive. `C=C(c1c(Cl)cc(-n2ncc(=O)[nH]c2=O)cc1Cl)C1CCCC1`: the outcome was inactive. The result for “(1-Cyclopentyl-vinyl)-trimethyl-stannane” reads “inactive”.

As to “Trimethyl-(4-methyl-cyclohex-1-enyl)-stannane”, the result was inactive. Consider “[1-(2,5-Dimethoxy-phenyl)-vinyl]-trimethyl-stannane”, for which the outcome was inactive.

On to `CC1CC=C(c2c(Cl)cc(-n3ncc(=O)[nH]c3=O)cc2Cl)CC1` (centres undefined), for which the outcome was inactive. With `C=C(c1c(Cl)cc(-n2ncc(=O)[nH]c2=O)cc1Cl)C1CCCCC1`, the outcome was inactive. `O=c1cnn(-c2ccc(I)c(C(F)(F)F)c2)c(=O)[nH]1`: the result was inactive. The result for (1-Cyclohexyl-vinyl)-trimethyl-stannane reads “inactive”.
